Assay results: ChEMBL document CHEMBL1909046, “DrugMatrix in vitro pharmacology data”

What was measured:
[1] = DRUGMATRIX: Tumor Necrosis Factor (TNF), Non-Selective radioligand binding (ligand: [125I] TNF-alpha); type: cell membranes, Membrane; conditions: u-937; Not Active = under 50% inhibition at 10 µM
[2] = target: Voltage-gated inwardly rectifying potassium channel KCNH2 (Homo sapiens, UniProt Q12809); conditions: hek293; also: in other assays of this panel Not Active means under 50% inhibition at 10 µM
[3] = DRUGMATRIX: Calcium Channel Type L, Benzothiazepine radioligand binding (ligand: [3H] Diltiazem); type: cell membranes, Rattus norvegicus, Wistar, Brain, Membrane; conditions: Not Active = under 50% inhibition at 10 µM
[4] = target: T1, Cholecystokinin receptor type A (Homo sapiens, UniProt P32238); type: cell membranes, Membrane; conditions: 1321-n1; also: in other assays of this panel Not Active means under 50% inhibition at 10 µM
T1 sequence (P32238 whole entry): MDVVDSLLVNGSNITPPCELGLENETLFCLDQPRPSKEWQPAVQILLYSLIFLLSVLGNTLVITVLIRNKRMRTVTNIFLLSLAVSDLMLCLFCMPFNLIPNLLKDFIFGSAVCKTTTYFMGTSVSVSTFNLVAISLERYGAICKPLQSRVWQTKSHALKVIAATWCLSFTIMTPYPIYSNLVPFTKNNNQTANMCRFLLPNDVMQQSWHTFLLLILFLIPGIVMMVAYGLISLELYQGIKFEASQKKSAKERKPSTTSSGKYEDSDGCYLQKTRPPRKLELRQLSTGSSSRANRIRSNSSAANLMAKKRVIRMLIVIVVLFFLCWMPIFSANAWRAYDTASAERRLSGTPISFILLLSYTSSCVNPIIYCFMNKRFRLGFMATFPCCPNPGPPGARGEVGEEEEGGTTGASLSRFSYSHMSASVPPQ

[5] = target: T2, Cysteinyl leukotriene receptor 1 (Homo sapiens, UniProt Q9Y271); type: cell membranes, CHO-K1, Membrane; conditions: cho-k1; also: in other assays of this panel Not Active means under 50% inhibition at 10 µM
T2 sequence (Q9Y271 whole entry): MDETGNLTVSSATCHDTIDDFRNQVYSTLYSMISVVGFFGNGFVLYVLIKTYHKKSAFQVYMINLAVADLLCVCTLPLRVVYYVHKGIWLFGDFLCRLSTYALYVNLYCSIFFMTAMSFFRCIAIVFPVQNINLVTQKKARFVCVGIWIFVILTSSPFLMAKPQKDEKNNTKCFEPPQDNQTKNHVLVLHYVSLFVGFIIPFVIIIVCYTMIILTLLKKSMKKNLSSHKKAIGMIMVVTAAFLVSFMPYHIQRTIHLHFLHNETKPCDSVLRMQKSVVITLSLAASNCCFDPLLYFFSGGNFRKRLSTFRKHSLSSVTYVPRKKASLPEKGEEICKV

[6] = target: T3, Leukotriene C4 synthase (Cavia porcellus, UniProt A6XA80); test: biochemical; type: tissue-based, Lung;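 also: enzyme inhibition assay of leukotriene C4 synthase, using LTA4 as the substrate; in other assays of this panel Not Active means under 50% inhibition at 10 µM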
T3 sequence (A6XA80 whole entry): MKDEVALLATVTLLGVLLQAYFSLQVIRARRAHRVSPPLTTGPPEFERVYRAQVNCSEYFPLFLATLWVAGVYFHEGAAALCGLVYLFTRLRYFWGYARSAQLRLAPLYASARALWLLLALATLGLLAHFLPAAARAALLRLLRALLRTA

[7] = target: T4, Neuropeptide Y receptor type 2 (Homo sapiens, UniProt P49146); type: cell membranes, Membrane; conditions: kan-ts; also: in other assays of this panel Not Active means under 50% inhibition at 10 µM
T4 sequence (P49146 whole entry): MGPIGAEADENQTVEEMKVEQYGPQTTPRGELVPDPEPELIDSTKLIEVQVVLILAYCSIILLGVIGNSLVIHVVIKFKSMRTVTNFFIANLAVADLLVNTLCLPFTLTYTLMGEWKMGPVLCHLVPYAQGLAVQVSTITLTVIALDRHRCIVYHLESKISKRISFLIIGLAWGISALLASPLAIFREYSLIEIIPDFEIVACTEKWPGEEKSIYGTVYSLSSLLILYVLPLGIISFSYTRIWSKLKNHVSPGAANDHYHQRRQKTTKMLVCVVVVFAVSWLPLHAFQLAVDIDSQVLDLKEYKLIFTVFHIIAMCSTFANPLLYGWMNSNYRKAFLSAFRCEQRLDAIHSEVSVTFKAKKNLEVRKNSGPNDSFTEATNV

[8] = target: T5, B2 bradykinin receptor (Homo sapiens, UniProt P30411); type: cell membranes, Membrane; conditions: chem-1; also: in other assays of this panel Not Active means under 50% inhibition at 10 µM
T5 sequence (P30411 whole entry): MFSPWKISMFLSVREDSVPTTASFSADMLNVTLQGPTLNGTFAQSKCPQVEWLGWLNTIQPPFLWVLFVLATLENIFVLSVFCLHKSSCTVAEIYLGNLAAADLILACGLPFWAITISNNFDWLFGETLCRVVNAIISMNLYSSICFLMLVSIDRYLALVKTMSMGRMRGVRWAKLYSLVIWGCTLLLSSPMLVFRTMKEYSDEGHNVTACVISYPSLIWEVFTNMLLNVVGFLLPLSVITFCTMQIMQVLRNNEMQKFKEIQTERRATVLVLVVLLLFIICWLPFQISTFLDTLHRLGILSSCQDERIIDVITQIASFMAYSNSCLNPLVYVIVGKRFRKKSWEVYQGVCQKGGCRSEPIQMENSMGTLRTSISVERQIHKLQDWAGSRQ

Voltage-gated inwardly rectifying potassium channel KCNH2, sequence (Q12809 whole entry): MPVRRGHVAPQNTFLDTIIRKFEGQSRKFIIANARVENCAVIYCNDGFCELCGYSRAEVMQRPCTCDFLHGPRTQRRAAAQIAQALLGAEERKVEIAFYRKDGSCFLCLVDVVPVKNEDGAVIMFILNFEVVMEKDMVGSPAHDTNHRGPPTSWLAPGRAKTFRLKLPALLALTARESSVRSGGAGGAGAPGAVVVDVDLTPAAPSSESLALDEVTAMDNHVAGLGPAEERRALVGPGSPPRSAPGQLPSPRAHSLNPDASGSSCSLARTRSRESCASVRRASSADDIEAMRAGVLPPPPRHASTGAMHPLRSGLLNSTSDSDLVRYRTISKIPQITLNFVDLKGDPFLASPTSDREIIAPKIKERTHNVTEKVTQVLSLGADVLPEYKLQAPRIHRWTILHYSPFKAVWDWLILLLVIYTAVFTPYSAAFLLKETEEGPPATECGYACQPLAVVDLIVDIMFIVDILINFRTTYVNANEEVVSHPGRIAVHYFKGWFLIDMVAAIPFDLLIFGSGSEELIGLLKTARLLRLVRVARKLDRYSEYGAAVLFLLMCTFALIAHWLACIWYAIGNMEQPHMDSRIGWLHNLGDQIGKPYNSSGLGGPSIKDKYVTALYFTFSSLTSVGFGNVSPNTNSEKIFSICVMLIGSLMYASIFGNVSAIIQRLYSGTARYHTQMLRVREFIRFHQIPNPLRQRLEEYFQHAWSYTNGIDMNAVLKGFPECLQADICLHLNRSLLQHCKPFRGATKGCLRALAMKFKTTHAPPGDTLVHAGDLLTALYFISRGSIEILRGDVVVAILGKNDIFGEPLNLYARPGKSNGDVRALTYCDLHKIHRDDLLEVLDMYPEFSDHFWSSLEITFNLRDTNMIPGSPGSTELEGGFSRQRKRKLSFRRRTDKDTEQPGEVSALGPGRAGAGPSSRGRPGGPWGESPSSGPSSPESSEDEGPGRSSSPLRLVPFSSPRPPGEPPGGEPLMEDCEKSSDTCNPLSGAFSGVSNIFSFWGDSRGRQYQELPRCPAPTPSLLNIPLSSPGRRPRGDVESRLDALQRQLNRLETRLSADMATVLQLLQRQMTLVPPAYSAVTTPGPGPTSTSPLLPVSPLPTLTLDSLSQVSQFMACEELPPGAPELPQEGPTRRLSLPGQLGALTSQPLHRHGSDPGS

OC[C@H]1OC2C3[C@@H](CO)OC(O[C@H]4[C@H](O)[C@@H](O)[C@@H](O[C@H]5[C@H](O)[C@@H](O)[C@@H](O[C@H]6[C@H](O)[C@@H](O)[C@@H](O[C@H]7[C@H](O)[C@@H](O)[C@@H](O[C@H]8[C@H](O)[C@@H](O)[C@@H](O[C@H]9[C@H](O)[C@@H](O)C(OC1[C@H](O)[C@H]2O)O[C@@H]9CO)O[C@@H]8CO)O[C@@H]7CO)O[C@@H]6CO)O[C@@H]5CO)O[C@@H]4CO)[C@H](O)[C@H]3O
Not Active: IC50 [1] | Ki [1] | IC50 [2] | Ki [2] | IC50 [3] | Ki [3] | IC50 [4] | IC50 [5] | IC50 [6] | IC50 [7] | IC50 [8]

CCN1CCN(c2cc3c(cc2F)c(=O)c(C(=O)O)cn3C2CC2)CC1 [ENROFLOXACIN]
Not Active: IC50 [1] | Ki [1] | IC50 [2] | Ki [2] | IC50 [3] | Ki [3] | IC50 [4] | IC50 [5] | IC50 [6] | IC50 [7] | IC50 [8]

POVIDONE
Not Active: IC50 [1] | Ki [1] | IC50 [2] | Ki [2] | IC50 [3] | Ki [3] | IC50 [4] | Ki [4] | IC50 [5] | Ki [5] | IC50 [6] | Ki [6] | IC50 [7] | Ki [7] | IC50 [8] | Ki [8]

C=C(Cl)Cl [1,1-DICHLOROETHENE]
Not Active: IC50 [1] | Ki [1] | IC50 [2] | Ki [2] | IC50 [3] | Ki [3] | IC50 [4] | IC50 [5] | IC50 [6] | IC50 [7] | IC50 [8]

C#C[C@]1(O)CC[C@H]2[C@@H]3CCC4=CC(=O)CC[C@@H]4[C@H]3CC[C@@]21C [NORETHINDRONE]
Not Active: IC50 [1] | Ki [1] | IC50 [2] | Ki [2] | IC50 [3] | Ki [3] | IC50 [4] | IC50 [5] | IC50 [6] | IC50 [7] | IC50 [8]

C=CCN1CC[C@]23c4c5ccc(O)c4O[C@H]2/C(=N/N=C2\CC[C@@]4(O)[C@H]6Cc7ccc(O)c8c7[C@@]4(CCN6CC=C)[C@H]2O8)CC[C@@]3(O)[C@H]1C5 [NALOXONAZINE]
Not Active: IC50 [1] | Ki [1] | IC50 [2] | Ki [2] | IC50 [3] | Ki [3] | IC50 [4] | IC50 [5] | IC50 [6] | IC50 [7] | IC50 [8]

Oc1ncnc2[nH]ncc12 [ALLOPURINOL]
Not Active: IC50 [1] | Ki [1] | IC50 [2] | Ki [2] | IC50 [3] | Ki [3] | IC50 [4] | IC50 [5] | IC50 [6] | IC50 [7] | IC50 [8]

CCC1(c2ccccc2)C(=O)NC(=O)NC1=O [PHENOBARBITAL]
Not Active: IC50 [1] | Ki [1] | IC50 [2] | Ki [2] | IC50 [3] | Ki [3] | IC50 [4] | IC50 [5] | IC50 [6] | IC50 [7] | IC50 [8]

CHROMIC CHLORIDE
Not Active: IC50 [1] | Ki [1] | IC50 [2] | Ki [2] | IC50 [3] | Ki [3] | IC50 [4] | Ki [4] | IC50 [5] | Ki [5] | IC50 [6] | Ki [6] | IC50 [7] | Ki [7] | IC50 [8] | Ki [8]

CCCCCCNC(=O)n1cc(F)c(=O)[nH]c1=O [CARMOFUR]
Not Active: IC50 [1] | Ki [1] | IC50 [2] | Ki [2] | IC50 [3] | Ki [3] | IC50 [4] | IC50 [5] | IC50 [6] | IC50 [7] | IC50 [8]

O=C(O)CCc1nc(-c2ccccc2)c(-c2ccccc2)o1 [OXAPROZIN]
Not Active: IC50 [1] | Ki [1] | IC50 [2] | Ki [2] | IC50 [3] | Ki [3] | IC50 [4] | IC50 [5] | IC50 [6] | IC50 [7] | IC50 [8]

Oc1ccccc1 [PHENOL]
Not Active: IC50 [1] | Ki [1] | IC50 [2] | Ki [2] | IC50 [3] | Ki [3] | IC50 [4] | IC50 [5] | IC50 [6] | IC50 [7] | IC50 [8]
